Experimental data taken from the NIST ThermoML archive (doi:10.1021/je0601356).
Values joined by “and” are separate entries in the source; they are usually repeats but may differ in a detail not shown here. Identical values can stand only once.

Details: Liquid, Vibrating wire viscometry

FC(F)C(F)(F)F [pentafluoroethane]
Details	viscosity
253.99 K, 1440 kPa	0.2707 mPa·s
253.99 K, 1450 kPa	0.271 mPa·s
253.99 K, 1460 kPa	0.271 mPa·s
253.99 K, 1470 kPa	0.2711 mPa·s
253.99 K, 1480 kPa	0.2707 mPa·s
253.99 K, 3250 kPa	0.2794 mPa·s
253.99 K, 3280 kPa	0.2794 mPa·s and 0.279 mPa·s and 0.2789 mPa·s
253.99 K, 5050 kPa	0.2876 mPa·s
253.99 K, 5060 kPa	0.2874 mPa·s
253.99 K, 5100 kPa	0.2875 mPa·s
253.99 K, 5140 kPa	0.2875 mPa·s
253.99 K, 7350 kPa	0.2984 mPa·s
253.99 K, 7360 kPa	0.2984 mPa·s
253.99 K, 7380 kPa	0.2982 mPa·s
263.23 K, 1430 kPa	0.2381 mPa·s
263.23 K, 1440 kPa	0.2373 mPa·s and 0.2375 mPa·s
263.23 K, 1460 kPa	0.2382 mPa·s
263.23 K, 1480 kPa	0.2377 mPa·s
263.23 K, 3050 kPa	0.2452 mPa·s
263.23 K, 3060 kPa	0.2453 mPa·s
263.23 K, 3070 kPa	0.2456 mPa·s
263.23 K, 5030 kPa	0.2531 mPa·s
263.23 K, 5050 kPa	0.2529 mPa·s
263.23 K, 5060 kPa	0.2535 mPa·s
263.23 K, 5070 kPa	0.2538 mPa·s
263.23 K, 5080 kPa	0.2538 mPa·s
263.23 K, 5110 kPa	0.2534 mPa·s
263.23 K, 7530 kPa	0.2643 mPa·s
263.23 K, 7560 kPa	0.2645 mPa·s
263.23 K, 7610 kPa	0.2645 mPa·s
263.23 K, 7640 kPa	0.2646 mPa·s
263.23 K, 9770 kPa	0.2743 mPa·s
263.23 K, 9800 kPa	0.274 mPa·s
263.23 K, 9820 kPa	0.2745 mPa·s
273.08 K, 1460 kPa	0.2076 mPa·s
273.08 K, 1480 kPa	0.2075 mPa·s
273.08 K, 1490 kPa	0.2074 mPa·s
273.08 K, 1500 kPa	0.2074 mPa·s and 0.2073 mPa·s
273.08 K, 2940 kPa	0.2147 mPa·s
273.08 K, 2950 kPa	0.2145 mPa·s
273.08 K, 2990 kPa	0.2145 mPa·s
273.08 K, 5020 kPa	0.2234 mPa·s
273.08 K, 5030 kPa	0.2229 mPa·s and 0.2233 mPa·s
273.08 K, 5040 kPa	0.2224 mPa·s and 0.2226 mPa·s
273.08 K, 7480 kPa	0.2324 mPa·s
273.08 K, 7490 kPa	0.2327 mPa·s and 0.2324 mPa·s
273.08 K, 7510 kPa	0.2324 mPa·s
273.08 K, 7520 kPa	0.2326 mPa·s
273.08 K, 7530 kPa	0.2324 mPa·s
273.08 K, 9680 kPa	0.2416 mPa·s
273.08 K, 9690 kPa	0.2419 mPa·s and 0.2421 mPa·s
273.08 K, 9710 kPa	0.2416 mPa·s
283.29 K, 1550 kPa	0.1781 mPa·s
283.29 K, 1580 kPa	0.1789 mPa·s
283.29 K, 1590 kPa	0.1788 mPa·s
283.29 K, 1600 kPa	0.1785 mPa·s
283.29 K, 1620 kPa	0.1783 mPa·s
283.29 K, 3000 kPa	0.1852 mPa·s
283.29 K, 3010 kPa	0.185 mPa·s
283.29 K, 3030 kPa	0.1852 mPa·s
283.29 K, 3060 kPa	0.185 mPa·s
283.29 K, 5190 kPa	0.1957 mPa·s
283.29 K, 5220 kPa	0.1955 mPa·s [middle of 4 runs]
283.29 K, 5230 kPa	0.1953 mPa·s
283.29 K, 5270 kPa	0.1956 mPa·s
283.29 K, 7590 kPa	0.2059 mPa·s
283.29 K, 7600 kPa	0.2057 mPa·s [middle of 5 runs]
283.29 K, 10040 kPa	0.2155 mPa·s and 0.2159 mPa·s
283.29 K, 10050 kPa	0.2155 mPa·s
283.29 K, 10070 kPa	0.2155 mPa·s
283.29 K, 10080 kPa	0.2157 mPa·s
293.13 K, 2020 kPa	0.1577 mPa·s
293.13 K, 2030 kPa	0.1581 mPa·s
293.13 K, 2070 kPa	0.1583 mPa·s
293.13 K, 2100 kPa	0.1584 mPa·s
293.13 K, 2110 kPa	0.1583 mPa·s
293.13 K, 2140 kPa	0.1583 mPa·s
293.13 K, 5080 kPa	0.172 mPa·s
293.13 K, 5100 kPa	0.1716 mPa·s
293.13 K, 5130 kPa	0.1719 mPa·s and 0.1715 mPa·s
293.13 K, 7530 kPa	0.1818 mPa·s and 0.1813 mPa·s and 0.1811 mPa·s
293.13 K, 9990 kPa	0.1918 mPa·s
293.13 K, 10030 kPa	0.1915 mPa·s
293.13 K, 10040 kPa	0.1917 mPa·s [middle of 4 runs]
293.13 K, 10050 kPa	0.1914 mPa·s
